According to the NIST ThermoML archive (doi:10.1021/je100145f):
Several values for one entry are separate records, joined by “and”; a condition that tells them apart may be missing. Equal entries are not always repeated.

Assays:
[1] = xn = mol fraction of the nth substance listed; settings: 101 kPa, Liquid, Vibrating tube method, x2 = 0
[2] = molar heat capacity at constant pressure; xn = mol fraction of the nth substance listed; settings: 101 kPa, Liquid, Small sample (50 mg) DSC, x2 = 0
[3] = molar heat capacity at constant pressure; settings: 101 kPa, Liquid, Small sample (50 mg) DSC
[4] = 101 kPa, Liquid, Vibrating tube method

CCCCCCCC [octane] + N#Cc1ccccc1
Settings | mass density, [1] [kg/m3] | molar heat capacity at constant pressure, [2] [J/K/mol]
283.15 K | 710.76 | 248.2
288.15 K | 706.76 | 250.1
293.15 K | 702.74 | 252.06
298.15 K | 698.71 | 254.08
303.15 K | 694.66 | 256.16
308.15 K | 690.58 | 258.28
313.15 K | 686.49 | 260.45
318.15 K | 682.37 | 262.66

CCCCCCCCC [nonane]
Settings | mass density, [4] [kg/m3] | molar heat capacity at constant pressure, [3] [J/K/mol]
285.15 K | 724.54 | 278.38
288.15 K | 722.22 | 279.6
293.15 K | 718.35 | 281.72
298.15 K | 714.46 | 283.86
303.15 K | 710.55 | 286.11
308.15 K | 706.63 | 288.4
313.15 K | 702.7 | 290.76

CCCCCCCCC [nonane] + N#Cc1ccccc1
Settings | mass density, [1] [kg/m3] | molar heat capacity at constant pressure, [2] [J/K/mol]
285.15 K | 724.54 | 278.38
288.15 K | 722.22 | 279.6
293.15 K | 718.35 | 281.72
298.15 K | 714.46 | 283.86
303.15 K | 710.55 | 286.11
308.15 K | 706.63 | 288.4
313.15 K | 702.7 | 290.76

N#Cc1ccccc1 [benzonitrile]
Settings | mass density, [4] [kg/m3] | molar heat capacity at constant pressure, [3]
283.15 K | 1013.99 | 163.43 J/K/mol
285.15 K | 1012.21 | 163.9 J/K/mol
288.15 K | 1009.55 | 164.61 J/K/mol and 164.63 J/K/mol
293.15 K | 1005.12 | 165.82 J/K/mol
298.15 K | 1000.69 | 167.06 J/K/mol
303.15 K | 996.26 | 168.32 J/K/mol
308.15 K | 991.83 | 169.59 J/K/mol
313.15 K | 987.4 | 170.87 J/K/mol
318.15 K | 982.96 | 172.15 J/K/mol

CCCCCCCC [octane]
Settings | mass density, [4] [kg/m3] | molar heat capacity at constant pressure, [3] [J/K/mol]
283.15 K | 710.76 | 248.2
288.15 K | 706.76 | 250.1
293.15 K | 702.74 | 252.06
298.15 K | 698.71 | 254.08
303.15 K | 694.66 | 256.16
308.15 K | 690.58 | 258.28
313.15 K | 686.49 | 260.45
318.15 K | 682.37 | 262.66
